Measured values as given in PubChem BioAssay (NCI).
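Five compound concentrations were applied to cells in 96-well plates for 48 hours; endpoints were derived by simple linear interpolation of the resulting dose-response curve. The concentration for 50% growth inhibition is given as GI50. TGI marks complete inhibition of growth.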

Tests used:
Test in all cases: NCI anticancer screen, dose series, 48 h
ACHN renal = tested on: ACHN renal
OVCAR-8 ovarian = tested on: OVCAR-8 ovarian
MDA-MB-231 breast = tested on: MDA-MB-231 breast
K-562 leukemia = tested on: K-562 leukemia
SF-295 CNS = tested on: SF-295 CNS
U251 CNS = tested on: U251 CNS
HOP-62 NSCLC = tested on: HOP-62 NSCLC
EKVX NSCLC = tested on: EKVX NSCLC
SK-OV-3 ovarian = tested on: SK-OV-3 ovarian
MDA-MB-435 = tested on: MDA-MB-435
OVCAR-3 ovarian = tested on: OVCAR-3 ovarian
SF-539 CNS = tested on: SF-539 CNS
RPMI-8226 leukemia = tested on: RPMI-8226 leukemia
NCI-H226 lung = tested on: NCI-H226 lung
SK-MEL-28 melanoma = tested on: SK-MEL-28 melanoma
HCT-116 colon = tested on: HCT-116 colon
OVCAR-4 ovarian = tested on: OVCAR-4 ovarian
NCI-H23 lung = tested on: NCI-H23 lung
SF-268 CNS = tested on: SF-268 CNS
HOP-92 NSCLC = tested on: HOP-92 NSCLC
SW-620 colon = tested on: SW-620 colon
CCRF-CEM leukemia = tested on: CCRF-CEM leukemia
MOLT-4 leukemia = tested on: MOLT-4 leukemia
A498 renal = tested on: A498 renal
SN12C renal = tested on: SN12C renal
SNB-75 CNS = tested on: SNB-75 CNS
SK-MEL-2 melanoma = tested on: SK-MEL-2 melanoma
786-0 renal = tested on: 786-0 renal
HCT-15 colon = tested on: HCT-15 colon
HL-60(TB) leukemia = tested on: HL-60(TB) leukemia
HS 578T breast = tested on: HS 578T breast
COLO 205 colon = tested on: COLO 205 colon
NCI-H522 lung = tested on: NCI-H522 lung
SK-MEL-5 melanoma = tested on: SK-MEL-5 melanoma
IGROV1 ovarian = tested on: IGROV1 ovarian
RXF 393 renal = tested on: RXF 393 renal
SNB-19 CNS = tested on: SNB-19 CNS
M14 melanoma = tested on: M14 melanoma
CAKI-1 renal = tested on: CAKI-1 renal
TK-10 renal = tested on: TK-10 renal
UACC-62 melanoma = tested on: UACC-62 melanoma
MALME-3M melanoma = tested on: MALME-3M melanoma
PC-3 prostate = tested on: PC-3 prostate
LOX IMVI melanoma = tested on: LOX IMVI melanoma
NCI/ADR-RES ovarian = tested on: NCI/ADR-RES ovarian
DU-145 prostate = tested on: DU-145 prostate
HCC-2998 colon = tested on: HCC-2998 colon
A549 NSCLC = tested on: A549 NSCLC
T-47D breast = tested on: T-47D breast
HT29 colon = tested on: HT29 colon
MCF7 breast = tested on: MCF7 breast
BT-549 breast = tested on: BT-549 breast
UO-31 renal = tested on: UO-31 renal
OVCAR-5 ovarian = tested on: OVCAR-5 ovarian
KM12 colon = tested on: KM12 colon
NCI-H460 lung = tested on: NCI-H460 lung
UACC-257 melanoma = tested on: UACC-257 melanoma

Cc1c2ccc(N(C)c3ccnc(Nc4cccc(S(N)(=O)=O)c4)n3)cc2nn1C was tested, and the GI50 (ACHN renal) was 8.12 µM, the TGI (ACHN renal) was over 25 µM and the GI50 (OVCAR-8 ovarian) was 9.91 µM. For the same molecule, the TGI (OVCAR-8 ovarian) was over 25 µM, the GI50 (MDA-MB-231 breast) was 8.47 µM and the TGI (MDA-MB-231 breast) was over 25 µM. The GI50 (K-562 leukemia) was 5.54 µM, the TGI (K-562 leukemia) was over 25 µM and the GI50 (SF-295 CNS) was 6.81 µM. The TGI (SF-295 CNS) was over 19.9 µM, the GI50 (U251 CNS) was 10.9 µM and the TGI (U251 CNS) was over 25 µM. The GI50 (HOP-62 NSCLC) was 9.03 µM, the TGI (HOP-62 NSCLC) was over 25 µM and the GI50 (EKVX NSCLC) was 11.8 µM. The TGI (EKVX NSCLC) was over 25 µM, the GI50 (SK-OV-3 ovarian) was 7.03 µM and the TGI (SK-OV-3 ovarian) was 20.6 µM. For the same molecule, the GI50 (MDA-MB-435) was 6.74 µM, the TGI (MDA-MB-435) was over 22.3 µM and the GI50 (OVCAR-3 ovarian) was 14.2 µM. For the same molecule, the TGI (OVCAR-3 ovarian) was over 25 µM, the GI50 (SF-539 CNS) was 2.39 µM and the TGI (SF-539 CNS) was over 20.4 µM. The GI50 (RPMI-8226 leukemia) was 13.6 µM, the TGI (RPMI-8226 leukemia) was over 25 µM and the GI50 (NCI-H226 lung) was 6.2 µM. The TGI (NCI-H226 lung) was over 25 µM, the GI50 (SK-MEL-28 melanoma) was 9.95 µM and the TGI (SK-MEL-28 melanoma) was over 25 µM. The GI50 (HCT-116 colon) was 8.23 µM, the TGI (HCT-116 colon) was over 25 µM and the GI50 (OVCAR-4 ovarian) was 6.23 µM. The TGI (OVCAR-4 ovarian) was over 25 µM, the GI50 (NCI-H23 lung) was 7.49 µM and the TGI (NCI-H23 lung) was over 25 µM. It also gave a GI50 (SF-268 CNS) of 8.51 µM, a TGI (SF-268 CNS) of over 25 µM and a GI50 (HOP-92 NSCLC) of 5.41 µM. For the same molecule, the TGI (HOP-92 NSCLC) was 17.9 µM, the GI50 (SW-620 colon) was 11.7 µM and the TGI (SW-620 colon) was over 25 µM. For the same molecule, the GI50 (CCRF-CEM leukemia) was 9.21 µM, the TGI (CCRF-CEM leukemia) was over 25 µM and the GI50 (MOLT-4 leukemia) was 8.81 µM. For the same molecule, the TGI (MOLT-4 leukemia) was over 23.6 µM, the GI50 (A498 renal) was 1.89 µM and the TGI (A498 renal) was over 17.9 µM. It also gave a GI50 (SN12C renal) of 8.75 µM, a TGI (SN12C renal) of over 25 µM and a GI50 (SNB-75 CNS) of 4.33 µM. It also gave a TGI (SNB-75 CNS) of over 22.9 µM, a GI50 (SK-MEL-2 melanoma) of 7.06 µM and a TGI (SK-MEL-2 melanoma) of 16.7 µM. The GI50 (786-0 renal) was 13.2 µM, the TGI (786-0 renal) was over 25 µM and the GI50 (HCT-15 colon) was 9.34 µM. The TGI (HCT-15 colon) was over 25 µM, the GI50 (HL-60(TB) leukemia) was 8.44 µM and the TGI (HL-60(TB) leukemia) was over 19.1 µM. The GI50 (HS 578T breast) was 6.8 µM, the TGI (HS 578T breast) was over 25 µM and the GI50 (COLO 205 colon) was 12.5 µM. The TGI (COLO 205 colon) was over 25 µM, the GI50 (NCI-H522 lung) was 6.09 µM and the TGI (NCI-H522 lung) was 23.7 µM. For the same molecule, the GI50 (SK-MEL-5 melanoma) was 6.01 µM, the TGI (SK-MEL-5 melanoma) was over 17.1 µM and the GI50 (IGROV1 ovarian) was 10.1 µM. It also gave a TGI (IGROV1 ovarian) of over 25 µM, a GI50 (RXF 393 renal) of 7.14 µM and a TGI (RXF 393 renal) of over 22.7 µM. It also gave a GI50 (SNB-19 CNS) of over 22.9 µM, a TGI (SNB-19 CNS) of over 25 µM and a GI50 (M14 melanoma) of 9.73 µM. For the same molecule, the TGI (M14 melanoma) was over 25 µM, the GI50 (CAKI-1 renal) was 7.73 µM and the TGI (CAKI-1 renal) was 24.7 µM. For the same molecule, the GI50 (TK-10 renal) was 10.5 µM, the TGI (TK-10 renal) was over 25 µM and the GI50 (UACC-62 melanoma) was 8.38 µM. It also gave a TGI (UACC-62 melanoma) of over 25 µM, a GI50 (MALME-3M melanoma) of 5.74 µM and a TGI (MALME-3M melanoma) of 20.2 µM. For the same molecule, the GI50 (PC-3 prostate) was 9.23 µM, the TGI (PC-3 prostate) was over 25 µM and the GI50 (LOX IMVI melanoma) was 6.86 µM. It also gave a TGI (LOX IMVI melanoma) of over 25 µM, a GI50 (NCI/ADR-RES ovarian) of over 19.7 µM and a TGI (NCI/ADR-RES ovarian) of over 25 µM. The GI50 (DU-145 prostate) was 9.06 µM, the TGI (DU-145 prostate) was over 25 µM and the GI50 (HCC-2998 colon) was 18.9 µM. For the same molecule, the TGI (HCC-2998 colon) was over 25 µM, the GI50 (A549 NSCLC) was 11.9 µM and the TGI (A549 NSCLC) was over 25 µM. For the same molecule, the GI50 (T-47D breast) was 5.27 µM, the TGI (T-47D breast) was 21.8 µM and the GI50 (HT29 colon) was 8.03 µM. The TGI (HT29 colon) was over 25 µM, the GI50 (MCF7 breast) was 8.95 µM and the TGI (MCF7 breast) was over 25 µM. It also gave a GI50 (BT-549 breast) of 9.48 µM, a TGI (BT-549 breast) of over 25 µM and a GI50 (UO-31 renal) of 5.96 µM. It also gave a TGI (UO-31 renal) of over 23.1 µM, a GI50 (OVCAR-5 ovarian) of 11.4 µM and a TGI (OVCAR-5 ovarian) of over 25 µM. The GI50 (KM12 colon) was 8.12 µM, the TGI (KM12 colon) was over 25 µM and the GI50 (NCI-H460 lung) was 7.23 µM. It also gave a TGI (NCI-H460 lung) of over 25 µM, a GI50 (UACC-257 melanoma) of 12.2 µM and a TGI (UACC-257 melanoma) of over 25 µM.
